Columns and labels:
Experiment in all cases: Bliss excess, mean over the matrix (fraction); higher = more synergy
[1] = system: SK-GT-2 (Gastric Carcinoma)
In short: (§1)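 Bliss excess equals the observed combination effect minus the expected value EA + EB − EA·EB, where EA and EB are the effects of each agent alone. Combination Emax is the second-highest inhibition within the matrix. Inhibition was scaled from CellTiter-Glo 2.0 luminescence, with 0 set by vehicle wells and 1 by blank wells, after 72 hours of two-drug dosing of cells plated in 1536-well plates.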

[2] = system: RPMI-8226 (Plasma Cell Myeloma)
In short: as §1

[3] = system: VMRC-RCZ (Kidney Carcinoma)
In short: as §1

[4] = system: HCC1419 (Breast Carcinoma)
In short: as §1

[5] = system: CW-2 (Colorectal Carcinoma)
In short: as §1

[6] = system: DAN-G (Pancreatic Carcinoma)
In short: as §1

[7] = system: SNU-398 (Hepatocellular Carcinoma)
In short: as §1

[8] = system: MN-60 (B-Lymphoblastic Leukemia)
In short: as §1

[9] = system: SUP-B15 (B-Lymphoblastic Leukemia)
In short: as §1

[10] = system: KYSE-270 (Esophageal Squamous Cell Carcinoma)
In short: as §1

[11] = system: ST486 (Burkitt's Lymphoma)
In short: as §1

[12] = system: 8505C (Thyroid Gland Carcinoma)
In short: as §1

M059J (Glioblastoma) = system: M059J (Glioblastoma)
In short: as §1

[13] = system: MOLM-13 (Acute Myeloid Leukemia)
In short: as §1

[14] = system: NCCIT (Other Solid Carcinomas)
In short: as §1

[15] = system: NCI-H526 (Small Cell Lung Carcinoma)
In short: as §1

[16] = system: COR-L279 (Small Cell Lung Carcinoma)
In short: as §1

[17] = system: KP-3 (Pancreatic Carcinoma)
In short: as §1

[18] = system: DMS-114 (Small Cell Lung Carcinoma)
In short: as §1

[19] = system: KMS-12-BM (Plasma Cell Myeloma)
In short: as §1

Row | SMILES | Bliss excess [1] | Bliss excess [2] | Bliss excess [3] | Bliss excess [4] | Bliss excess [5] | Bliss excess [6] | Bliss excess [7] | Bliss excess [8] | Bliss excess [9] | Bliss excess [10] | Bliss excess [11] | Bliss excess [12] | Bliss excess (M059J (Glioblastoma)) | Bliss excess [13] | Bliss excess [14] | Bliss excess [15] | Bliss excess [16] | Bliss excess [17] | Bliss excess [18] | Bliss excess [19]
1 | Cc1c2c(nn1C)CSCc1cc(n(C)n1)CSc1cc(c3ccccc3c1)OCCCc1c(C(=O)O)n(C)c3c-2c(Cl)ccc13 [AZD5991] + C[C@@H](Nc1cc(F)cc(F)c1)c1cc(C(=O)N(C)C)cc2c(=O)cc(N3CCOCC3)oc12 [AZD8186] (first compound max 1 µM, 7x7, partner max 3 µM) | 0.015 | -0.0219 | 0.0141 | -0.0038 | 0.0051 | 0.0051 | -0.0004 | -0.0454 | -0.0091 | 0.027 | -0.0659 | -0.0043 | -0.0842 | -0.0351 | -0.0176 | 0.0192 | -0.0011 | -0.0351 | -0.0338 | 0.0019
2 | Cc1cc2ncnn2cc1Nc1ncc2c(n1)n(C1CCOCC1)c(=O)n2C [AZD7648] + O=C(c1cc(Cc2n[nH]c(=O)c3ccccc23)ccc1F)N1CCN(C(=O)C2CC2)CC1 [Olaparib] (first compound max 10 µM, 7x7, partner max 10 µM) | -0.0297 | -0.038 | -0.0546 | -0.066 | -0.0201 | -0.0568 | -0.0381 | -0.0115 | 0.0239 | -0.034 | 0.0048 | -0.0202 | -0.097 | -0.134 | -0.0112 | -0.0129 | -0.0256 | -0.0409 | -0.0092 | 0.027
3 | CC1(C)CCC(CN2CCN(c3ccc(C(=O)NS(=O)(=O)c4ccc(NCC5CCOCC5)c([N+](=O)[O-])c4)c(Oc4cnc5[nH]ccc5c4)c3)CC2)=C(c2ccc(Cl)cc2)C1 [Venetoclax] + CN(C)CCCOc1ccc(-c2ccc3ncc4c(c3c2)n(C2CCOCC2)c(=O)n4C)cn1 [AZD0156] (first compound max 1 µM, 7x7, partner max 1 µM) | 0.005 | 0.0405 | -0.0492 | -0.0156 | 0.0285 | -0.0268 | -0.0081 | -0.0045 | -0.0392 | 0.0107 | 0.0106 | 0.0155 | -0.0173 | -0.126 | 0.0086 | 0.0393 | 0.0043 | -0.042 | -0.0436 | 0.0078
4 | Cc1cc2ncnn2cc1Nc1ncc2c(n1)n(C1CCOCC1)c(=O)n2C [AZD7648] + C=CCn1c(=O)c2cnc(Nc3ccc(N4CCN(C)CC4)cc3)nc2n1-c1cccc(C(C)(C)O)n1 [AZD1775] (first compound max 10 µM, partner max 1 µM) | -0.047 | 0.0062 | 0.0117 | -0.0156 | 0.0419 | -0.0686 | 0.0128 | -0.0316 | 0.0174 | 0.0028 | -0.0316 | -0.0235 | -0.0821 | -0.0255 | 0.0237 | 0.013 | -0.0595 | 0.0283 | -0.0151 | 0.0085
5 | COc1nnc2ccc(N3CCC(c4ccc(OCCN5CCN(C)C(=O)[C@H]5C)cc4)CC3)nn12 [AZD5153] + Cn1cnc2c(F)c(Nc3ccc(Br)cc3Cl)c(C(=O)NOCCO)cc21 [Selumetinib] (first compound max 1 µM, 7x7, partner max 10 µM) | 0.0006 | 0.0745 | -0.0486 | 0.0238 | 0.0215 | -0.0368 | -0.0298 | -0.0593 | 0.101 | 0.0576 | 0.031 | 0.0049 | -0.0635 | 0.0238 | -0.0845 | -0.0183 | -0.0778 | -0.0122 | 0.0443 | -0.0114
6 | CCN(CCO)CCCOc1ccc2c(Nc3cc(CC(=O)Nc4cccc(F)c4)[nH]n3)ncnc2c1 [AZD2811] + C[C@@H]1COCCN1C2=NC(=NC(=C2)C3(CC3)[S@](=N)(=O)C)C4=C5C=CNC5=NC=C4 [AZD6738] (first compound max 1 µM, 7x7, partner max 10 µM) | -0.0272 | -0.0178 | -0.085 | -0.0757 | -0.0116 | -0.0427 | 0.007 | -0.0215 | -0.0468 | -0.0449 | -0.0205 | -0.0514 | -0.0138 | -0.0161 | -0.0506 | -0.0178 | 0.0322 | -0.0582 | -0.0301 | 0.0141
7 | CCN(CCO)CCCOc1ccc2c(Nc3cc(CC(=O)Nc4cccc(F)c4)[nH]n3)ncnc2c1 [AZD2811] + O=C(c1cc(Cc2n[nH]c(=O)c3ccccc23)ccc1F)N1CCN(C(=O)C2CC2)CC1 [Olaparib] (first compound max 1 µM, 7x7, partner max 10 µM) | 0.0218 | -0.0137 | -0.0325 | -0.0532 | 0.0119 | 0.0092 | -0.0223 | -0.0206 | -0.0227 | 0.0212 | -0.0464 | -0.0228 | -0.0213 | -0.0094 | -0.0195 | 0.0486 | -0.0125 | -0.0484 | -0.0127 | 0.0456
8 | CCc1c2c(nc3ccc(O)cc13)-c1cc3c(c(=O)n1C2)COC(=O)[C@]3(O)CC [SN-38] + CN(C)CCCOc1ccc(-c2ccc3ncc4c(c3c2)n(C2CCOCC2)c(=O)n4C)cn1 [AZD0156] (first compound max 0.3 µM, 7x7, partner max 1 µM) | 0.0054 | 0.0218 | -0.0124 | -0.0773 | -0.0118 | 0.0626 | 0.0255 | 0.0279 | -0.0408 | -0.0393 | 0.0498 | 0.014 | -0.0104 | 0.0493 | 0.0163 | 0.0215 | 0.0163 | -0.0372 | 0.0147 | 0.0462
9 | COc1cccc(OCCCN)c1-c1cc(Nc2cnc(C#N)cn2)n[nH]1 [Prexasertib] + O=C(c1cc(Cc2n[nH]c(=O)c3ccccc23)ccc1F)N1CCN(C(=O)C2CC2)CC1 [Olaparib] (first compound max 1 µM, 7x7, partner max 10 µM) | -0.0472 | 0.0124 | -0.049 | -0.0229 | -0.0281 | -0.0164 | -0.0572 | -0.0494 | -0.0191 | -0.0789 | -0.0406 | -0.0434 | -0.0643 | -0.0224 | -0.103 | -0.0214 | -0.0493 | -0.0444 | 0.0146 | -0.0312
10 | Cc1c2c(nn1C)CSCc1cc(n(C)n1)CSc1cc(c3ccccc3c1)OCCCc1c(C(=O)O)n(C)c3c-2c(Cl)ccc13 [AZD5991] + CN(C)CCCOc1ccc(-c2ccc3ncc4c(c3c2)n(C2CCOCC2)c(=O)n4C)cn1 [AZD0156] (first compound max 1 µM, 7x7, partner max 1 µM) | 0.0228 | 0.0147 | -0.018 | 0.0105 | 0.0041 | 0.0141 | -0.0018 | 0.0047 | -0.0117 | 0.0347 | -0.0716 | -0.137 | 0.006 | -0.0329 | -0.039 | 0.0054 | -0.0051 | 0.0077 | 0.003 | -0.0445
11 | CN(C)CCCOc1ccc(-c2ccc3ncc4c(c3c2)n(C2CCOCC2)c(=O)n4C)cn1 [AZD0156] + C=CCn1c(=O)c2cnc(Nc3ccc(N4CCN(C)CC4)cc3)nc2n1-c1cccc(C(C)(C)O)n1 [AZD1775] (first compound max 1 µM, partner max 1 µM) | -0.0776 | -0.0017 | -0.0797 | -0.0446 | -0.0106 | -0.0064 | -0.0887 | 0.0193 | 0.0282 | 0.0314 | 0.0097 | -0.0492 | -0.11 | -0.0885 | 0.0278 | -0.0258 | -0.0763 | -0.0212 | -0.0479 | 0.0744
12 | CN(C)CCCOc1ccc(-c2ccc3ncc4c(c3c2)n(C2CCOCC2)c(=O)n4C)cn1 [AZD0156] + O=C(c1cc(Cc2n[nH]c(=O)c3ccccc23)ccc1F)N1CCN(C(=O)C2CC2)CC1 [Olaparib] (first compound max 3 µM, partner max 3 µM) | 0.0292 | 0.103 | -0.0283 | -0.0673 | -0.0031 | 0.0824 | 0.0815 | -0.0615 | -0.0159 | 0.0509 | 0.24 | 0.066 | 0.0304 | 0.21 | 0.0093 | 0.167 | 0.0782 | -0.0305 | -0.0425 | 0.0448
13 | Cc1c2c(nn1C)CSCc1cc(n(C)n1)CSc1cc(c3ccccc3c1)OCCCc1c(C(=O)O)n(C)c3c-2c(Cl)ccc13 [AZD5991] + C=CCn1c(=O)c2cnc(Nc3ccc(N4CCN(C)CC4)cc3)nc2n1-c1cccc(C(C)(C)O)n1 [AZD1775] (first compound max 1 µM, partner max 1 µM) | -0.0033 | -0.0006 | 0.0212 | -0.106 | 0.04 | 0.0424 | 0.0149 | -0.0077 | 0.0171 | 0.013 | -0.0067 | 0.0256 | -0.0191 | -0.0021 | -0.0113 | -0.0063 | -0.0632 | 0.0154 | -0.0295 | -0.0082
14 | CN(CCO)CC[C@H](CSc1ccccc1)Nc1ccc(S(=O)(=O)NC(=O)c2ccc(N3CCC([C@@H](O)c4ccccc4-c4ccc(Cl)cc4)CC3)cc2)cc1S(=O)(=O)C(F)(F)F [AZD4320] + Cn1cnc2c(F)c(Nc3ccc(Br)cc3Cl)c(C(=O)NOCCO)cc21 [Selumetinib] (first compound max 1 µM, 7x7, partner max 3 µM) | 0.0177 | 0.0202 | -0.0195 | -0.0211 | 0.0454 | 0.04 | 0.0783 | 0.0026 | 0.0853 | 0.0148 | 0.0086 | 0.0641 | -0.0289 | 0.0296 | -0.0045 | -0.0061 | -0.0029 | 0.0111 | 0.0226 | -0.024
15 | CC(=O)Nc1cccc(-n2c(=O)n(C3CC3)c(=O)c3c(Nc4ccc(I)cc4F)n(C)c(=O)c(C)c32)c1 [Trametinib] + Cc1nc(-c2cn3c(n2)-c2ccc(-c4cnn(C(C)(C)C(N)=O)c4)cc2OCC3)n(C(C)C)n1 [Taselisib] (first compound max 1 µM, 7x7, partner max 10 µM) | 0.134 | 0.25 | 0.0186 | 0.032 | 0.122 | 0.124 | 0.0676 | 0.0265 | 0.539 | 0.176 | -0.033 | 0.142 | 0.0493 | 0.215 | 0.0184 | -0.0308 | -0.0486 | 0.0777 | 0.079 | 0.103
